Where a name gives a salt, the structure may show the parent alone.
Legend:
serotonin 1A receptor = biological target: T1, serotonin 1A receptor (Rattus norvegicus, UniProt P19327); assay: Serotonin 1A receptor binding experiment (3H-8-OH-DPAT); conditions: rat cortex and hippocampal tissue; 0.5 nM 3H-8-OH-DPAT; IC50 in M; read-out: -logIC50 5-HT1A (converted)
T1 construct: the cortex and hippocampal tissue were extracted from the brain; from tissue; host or cells: brain cortex and hippocampus of 7-week-old male S.D. rats, washed membrane homogenate
T1 sequence (P19327 1-422): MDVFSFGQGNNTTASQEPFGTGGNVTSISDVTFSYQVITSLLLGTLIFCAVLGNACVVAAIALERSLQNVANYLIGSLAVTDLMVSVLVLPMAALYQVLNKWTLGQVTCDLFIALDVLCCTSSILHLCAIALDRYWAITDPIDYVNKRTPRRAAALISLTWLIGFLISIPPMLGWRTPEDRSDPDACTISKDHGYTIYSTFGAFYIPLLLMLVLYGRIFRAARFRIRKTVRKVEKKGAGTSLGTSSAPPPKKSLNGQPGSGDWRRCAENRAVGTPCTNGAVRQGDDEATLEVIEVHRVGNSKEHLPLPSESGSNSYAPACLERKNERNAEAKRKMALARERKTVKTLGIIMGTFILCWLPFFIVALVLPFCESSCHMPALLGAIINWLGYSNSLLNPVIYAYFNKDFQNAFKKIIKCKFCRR
Procedure: (§1) Affinity for intracerebral serotonin 1A and serotonin 2 receptor was checked in accordance with the method of Hall et al. (J. Neurochem., 44, 1685-1695, 1985) and the method of Leysen et al. (Mol. Pharmacol., 21, 301-314, 1982).
(§2) Stated more specifically, the cortex and hippocampal tissue were extracted from the brain of 7-wk old S.D. line male rats, mixed with 20 volumes of Tris-HCl buffer (50 mM, pH 7.7) and homogenized with a Teflon homogenizer. Thereafter, the homogenate was centrifuged at 39800×g for 20 min and the supernatant was discarded. Forty volumes of a buffer were added to the precipitate and the mixture was homogenized with a Polytron homogenizer, with the homogenate being centrifuged under the same condition as set forth above. The same procedure was repeated two more times and the final precipitate was homogenized with 40 volumes of a buffer; thereafter, the homogenate was stored at least overnight at -80° C. On the day when binding experiments were to be conducted, the homogenate was thawed at room temperature and incubated at 37° C. for 20 min to remove the endogenous serotonin.
(§3) Thereafter, centrifugation was conducted at 39800×g for 20 min and 40 volumes of a buffer were added to the precipitate, followed by homogenization. This procedure was repeated three times; to the final precipitate, a buffer was added in 65 volumes for the case of serotonin 1A receptor and in 80 volumes for the case of serotonin 2 receptor and the mixture was homogenized in preparation for the binding experiments that are described below. All procedures of experimentation except storage in a frozen state and thawing at room temperature were conducted at 4° C. or below.
A reaction solution containing 0.5 nM (final concentration) of 3H-8-hydroxy-2-(di-n-propylamino)tetralin (8-OH-DPAT), […] and 500 μl of brain homogenate in 1.0 ml (final volume) of a buffer was incubated at 25° C. for 30 min. Thereafter, the reaction solution was filtered by rapid passage through a glass filler. The filter was washed rapidly with an ice-cooled buffer (3 ml) three times, put into a scintillation vial together with a scintillation cocktail, and left to stand overnight at 4° C. On the next day, the vial was agitated well and measurements were conducted with a scintillation counter. To determine the amount of specific binding, the amount of binding in the presence of excess unlabeled serotonin (10 μM) was subtracted from the total amount of binding. As an index for the affinity of a test compound for either receptor, the concentration at which the specific binding of ^3 H-DPAT was inhibited by 50% (IC50, M) was determined using computer software EBDA/LIGAND (Biosoft).

S.D. line male rats [1] = assay: Antianxiety effect, water drinking under punishment (Vogel); format: in vivo, rat; set-up: Antianxiety effect / Antianxiety effect, longevity: unit not given here; conditions: for change in vivo at 20 mg/kg: Rattus norvegicus, po, read-out: Antianxiety effect, Efficacy
Procedure: Antianxiety test was conducted in accordance with a method adapted from the method of Vogel et al. (Psychopharmacol., 21, 1-7, 1971). Stated more specifically, S.D. line male rats weighing 250-300 g were entirely kept from water for 24 h and then placed in a concrete experimental box. […] The bottom of the box was made of a stainless steel grid, from which electric shock (0.2 mA, 0.5 sec) could be applied to the limbs of rats. The test schedule was as follows: first, the rats were acclimatized to the experimental box and trained for drinking water; this was done for 3 min without electric shock. The quantity of water drunk by the rats was then measured (under non-punishment). Then, the rats were kept from drinking water for 24 h. Thereafter, the quantity of water drunk by each rat was measured (before administration of test compound) under such conditions that an electric shock was applied each time a rat drank one water drop (under punishment).Thirty minutes later, a test drug was administered perorally and after an additional 20 min, the quantity of water drunk by each rat was again measured under punishment (after administration of test compound). The quantity of water drunk by rats will decrease under punishment but it is known that the initial level can be restored by administering an antianxiety agent.
The antianxiety effect of a test compound was calculated by the following formula: [formula]
(§4) The procedure of Test Examples 2 and 3 were repeated except that test compounds were administered perorally in a dose of 10 mg/kg.
(§5) The procedures of Test Example 2 and 3 were repeated, except that test compounds were administered perorally in a dose of 20 mg/kg to check the longevity of their antianxiety and antidepressant effects for 0.5, 2 and 4 h.

serotonin 2 receptor = biological target: T2, serotonin 2 receptor (Rattus norvegicus, UniProt P14842); assay: Serotonin 2 receptor binding experiment (3H-ketancerine); conditions: rat cortex and hippocampal tissue; 0.5 nM 3H-ketancerine; IC50 in M; read-out: -logIC50 5-HT2 (converted)
T2 construct: the cortex and hippocampal tissue were extracted from the brain; from tissue; host or cells: brain cortex and hippocampus of 7-week-old male S.D. rats, washed membrane homogenate
T2 sequence (P14842 whole entry): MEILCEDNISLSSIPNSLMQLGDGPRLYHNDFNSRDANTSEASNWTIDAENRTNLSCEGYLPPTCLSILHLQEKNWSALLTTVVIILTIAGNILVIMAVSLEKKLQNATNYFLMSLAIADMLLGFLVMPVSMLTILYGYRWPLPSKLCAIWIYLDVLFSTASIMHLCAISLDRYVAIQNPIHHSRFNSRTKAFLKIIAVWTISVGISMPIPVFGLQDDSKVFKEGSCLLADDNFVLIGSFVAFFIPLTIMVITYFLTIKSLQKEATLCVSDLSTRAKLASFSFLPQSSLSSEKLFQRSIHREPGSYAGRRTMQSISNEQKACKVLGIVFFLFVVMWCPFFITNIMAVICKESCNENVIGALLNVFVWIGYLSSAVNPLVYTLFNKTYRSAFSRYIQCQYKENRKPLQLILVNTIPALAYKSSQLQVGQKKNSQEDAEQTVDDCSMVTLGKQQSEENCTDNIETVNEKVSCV
Procedure: as §1, §2, §3
A reaction solution containing 0.5 nM (final concentration) of ^3 H-ketancerine and 500 μl of brain homogenate in 1.0 ml (final volume) of a buffer was incubated at 30° C. for 30 min. Subsequent procedures were the same as in the serotonin 1A receptor binding experiment and IC50 (M) was determined accordingly. To determine the amount of specific binding, the amount of binding in the presence of excess unlabelled methysergide ([…]) was subtracted from the total amount of binding.

S.D. line male rats [2] = assay: Antidepressant effect, compelled swim test (Porsolt), time over which rats remain motionless; format: in vivo, rat; set-up: Antidepressant effect / Antidepressant effect, longevity: scale not given here; conditions: for inhibition in vivo at 20 mg/kg: Rattus norvegicus, po, 0.5 h, 30 min before swim, read-out: Antidepressant effect, Efficacy
Procedure: An antidepression test was conducted in accordance with the method of Porsolt et al. (Europ. J. Pharmacol., 47, 379-391, 1978). Stated more specifically, 7-wk old S.D. line male rats were placed in a glass cylinder (18 cm^.phi. ×40 cm^H) for 15 min. The cylinder was filled with water (25° C.) to a depth of 15 cm. Thereafter, the rats were placed in a hot environment (32° C.) for 15 min before they were returned to the cage. Twenty-four hours later, the rats were compelled again to swim in the same cylinder for 5 min and the total time over which the rats remained motionless was measured. A test drug was administered perorally to each animal 30 min before it was compelled to swim for 5 min. Antidepressant agents are known to be capable of specifically reducing the time over which the rats would remain motionless (Psyehopharmaeol., 83, 1-16, 1984, and ibid., 94, 147-160, 1988). The antidepressant effect was calculated by the following formula: [formula]
as §4, §5

[3] = peroral 20 mg/kg, 0.5 h after administration
[4] = peroral 20 mg/kg, 2.0 h after administration
[5] = peroral 20 mg/kg, 4.0 h after administration

## O=C(NCCNCC1COc2ccccc2O1)C12CC3CC(CC(C3)C1)C2 (stereo not shown) [Compound 2, N-{[2-(1,4-benzodioxan-2-ylmethyl)amino]ethyl}tricyclo[3,3,1,1^3, ^7]decane-1-carboxyamide]
Serotonin 1A receptor
  IC50: 302 nM
S.D. line male rats [1]; peroral 20 mg/kg
  change in vivo at 20 mg/kg: 39.3 ± 10.8%
  Antianxiety effect: almost comparable effects to WY-50324
Serotonin 2 receptor
  IC50: 35.5 nM
S.D. line male rats [2]; peroral 20 mg/kg
  inhibition in vivo at 20 mg/kg: 85 ± 8.5%
  Antidepressant effect: better antidepressant effects than WY-50324

## O=C(NCCNCC1COc2ccc(Cl)cc2O1)C12CC3CC(CC(C3)C1)C2 (stereo not shown) [Compound 4, N-{[2-(7-chloro-1,4-benzodioxan-2ylmethyl)amino]ethyl}tricyclo[3,3,1,1^3, ^7]decane-1-carboxyamide]
Serotonin 1A receptor
  IC50: 5.13 nM
S.D. line male rats [1]; peroral 20 mg/kg
  change in vivo at 20 mg/kg: 76.8 ± 13.7%
  Antianxiety effect: comparable effects to MDL-73005
Serotonin 2 receptor
  IC50: 42.7 nM
S.D. line male rats [2]; peroral 20 mg/kg
  inhibition in vivo at 20 mg/kg: 51.9 ± 8.2%
  Antidepressant effect: almost comparable effects to WY-50324

## Cc1cccc2c1OC(CNCCNC(=O)C13CC4CC(CC(C4)C1)C3)CO2 (single isomer, unassigned; (-)) [Compound 7, (-)-N-{[2-(8-methyl-1,4-benzodioxan-2ylmethyl)amino]ethyl}tricyclo[3,3,1^3, ^7]decane-1carboxyamide hydrochloride]
Serotonin 1A receptor
  IC50: 0.316 nM
S.D. line male rats [1]; peroral 10 mg/kg
  Antianxiety effect: 45.4 ± 3.4
S.D. line male rats [1]; peroral 10 mg/kg, Table 6
  Antianxiety and antidepressant effects: superiority
S.D. line male rats [1]; [3]
  Antianxiety effect, longevity: 66.0
S.D. line male rats [1]; [4]
  Antianxiety effect, longevity: 51.6
S.D. line male rats [1]; [5]
  Antianxiety effect, longevity: 26.1
Serotonin 2 receptor
  IC50: 15.8 nM
S.D. line male rats [2]; peroral 10 mg/kg
  Antidepressant effect: 62.7 ± 12.4
S.D. line male rats [2]; [3]
  Antidepressant effect, longevity: 72.1
S.D. line male rats [2]; [4]
  Antidepressant effect, longevity: 76.9
S.D. line male rats [2]; [5]
  Antidepressant effect, longevity: 38.1

## COc1cccc2c1OCC(CNCCNC(=O)C13CC4CC(CC(C4)C1)C3)O2 (stereo not shown) [Compound 6, N-{[2-(5-methoxy-1,4-benzodioxan-2-ylmethyl)amino]ethyl}tricyclo[3,3,1^3, ^7]decane-1-carboxyamide]
Serotonin 1A receptor
  IC50: 4.07 nM
S.D. line male rats [1]; peroral 20 mg/kg
  change in vivo at 20 mg/kg: 28.7 ± 9.5%
Serotonin 2 receptor
  IC50: 75.9 nM
S.D. line male rats [2]; peroral 20 mg/kg
  inhibition in vivo at 20 mg/kg: 82.2 ± 6.6%
  Antidepressant effect: better antidepressant effects than WY-50324

## COc1cccc2c1OC(CNCCNC(=O)C13CC4CC(CC(C4)C1)C3)CO2 (stereo not shown) [Compound 5, N-{[2-(8-methoxy-1,4-benzodioxan-2ylmethyl)amino]ethyl}tricyclo[3,3,1,1^3'7]decane-1-carboxyamide]
Serotonin 1A receptor
  IC50: 0.347 nM
S.D. line male rats [1]; peroral 20 mg/kg
  change in vivo at 20 mg/kg: 40.9 ± 7.3%
  Antianxiety effect: almost comparable effects to WY-50324
Serotonin 2 receptor
  IC50: 10 nM
S.D. line male rats [2]; peroral 20 mg/kg
  inhibition in vivo at 20 mg/kg: 97.6 ± 0.9%
  Antidepressant effect: better antidepressant effects than WY-50324

— patent publication US5480905A, “Benzodioxane derivatives” (Chugai Seiyaku Kabushiki Kaisha, priority 1991, dated 1996)
